Assay results taken from patent publication US5498623A, “4(5) substituted imidazoles and their preparation and use” (Orion-yhtyma Oy, priority 1991, dated 1996).
Where two headings read alike, the source gives them in different places.

Key:
α2-adrenoceptor [1] = target: T1, α2-adrenoceptor (Mus musculus, UniProt Q01338); test: α2-Antagonism in vitro, isolated electrically stimulated mouse vas deferens (vs detomidine)
T1 construct: isolated, electrically stimulated mouse vas deferens preparation; from tissue; host or cells: isolated mouse vas deferens
T1 sequence (Q01338 1-465): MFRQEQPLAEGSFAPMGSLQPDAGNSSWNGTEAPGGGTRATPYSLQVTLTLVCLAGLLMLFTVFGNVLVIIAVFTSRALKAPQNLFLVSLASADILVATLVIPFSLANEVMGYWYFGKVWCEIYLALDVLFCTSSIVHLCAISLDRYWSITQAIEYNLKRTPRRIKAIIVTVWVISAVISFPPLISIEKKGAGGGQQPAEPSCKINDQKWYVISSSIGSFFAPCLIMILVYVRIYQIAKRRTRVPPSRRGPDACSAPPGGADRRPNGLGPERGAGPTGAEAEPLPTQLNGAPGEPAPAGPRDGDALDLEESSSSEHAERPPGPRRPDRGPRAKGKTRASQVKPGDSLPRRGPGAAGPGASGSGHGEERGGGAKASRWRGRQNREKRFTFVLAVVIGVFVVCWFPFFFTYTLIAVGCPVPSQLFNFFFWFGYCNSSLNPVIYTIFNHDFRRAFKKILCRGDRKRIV
Method: 1. α2 -Antagonism in vitro
α2 -Antagonism was determined by means of isolated, electrically stimulated mouse vas deferens preparation (Marshall et al., Br. J. Pharmac. 62, 147, 151, 1978). In this model, α2 -agonist (detomidine) blocks electrically stimulated muscular contractions and the effect of the α2 -antagonist is seen by administering it prior to the agonist and by determining its pA2 value.

α1-adrenoceptor [2] = test: α1-Antagonism in vitro, isolated epididymal portion of rat vas deferens (vs phenylephrine); details: contraction induced by phenylephrine
Method: (§1) To obtain information also on the selectivity of the antagonist between α1 - and α2 -receptors, its ability to inhibit or stimulate α1 -receptors was determined by means of isolated epididymal portion of rat vas deferens. The reference substances were now phenylephrine, a known α1 -agonist, and prazosin, a known α1 -antagonist. To determine α1 -antagonism, muscular contraction was induced by phenylephrine and the pA2 value of the studied compound was determined as above α1 -Agonist effect is presented as the pD2 value (negative logarithm of the molar concentration of the compound producing 50 percent of maximal contraction).

α1-adrenoceptor [3] = target: T2, α1-adrenoceptor (Rattus norvegicus, UniProt P43140); details: for α1-Agonism (pD2) rat vas deferens / EC50: negative logarithm of molar concentration producing 50 percent of maximal contraction; for EC50: read-out: α1-Agonism (pD2) rat vas deferens (converted)
T2 sequence (P43140 1-466): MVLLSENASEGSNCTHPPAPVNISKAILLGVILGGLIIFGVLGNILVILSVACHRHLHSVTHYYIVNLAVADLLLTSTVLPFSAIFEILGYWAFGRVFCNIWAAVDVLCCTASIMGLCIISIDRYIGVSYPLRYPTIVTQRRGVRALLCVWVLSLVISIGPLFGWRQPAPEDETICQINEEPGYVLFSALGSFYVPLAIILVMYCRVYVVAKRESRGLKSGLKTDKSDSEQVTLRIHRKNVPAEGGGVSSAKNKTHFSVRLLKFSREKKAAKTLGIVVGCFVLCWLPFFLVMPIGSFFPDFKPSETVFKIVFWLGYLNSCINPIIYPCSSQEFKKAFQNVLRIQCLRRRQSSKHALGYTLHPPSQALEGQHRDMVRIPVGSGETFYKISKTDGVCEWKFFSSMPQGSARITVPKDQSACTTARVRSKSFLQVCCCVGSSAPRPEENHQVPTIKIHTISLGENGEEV
Method: as §1

α2-adrenoceptor [4] = test: α2-Adrenoceptor antagonism in vivo, reversal of detomidine-induced mydriasis in anaesthetized rat; details: dose producing 50 per cent reversal of detomidine-induced mydriasis
Method: 2. α2 -Adrenoceptor antagonism in vivo
It is known that in the rat α2 -agonists induce dilatation of the pupil (mydriasis) which effect is transmitted via postsynaptic α2 -receptors in the central nervous system. In anaesthetized rat, a standard dose of an α2 -agonist, detomidine, was administered intravenously. Thereafter increasing doses of the studied antagonists were injected intravenously and the reversal of detomidine-induced mydriasis was followed. The ED50 value of the antagonist, i.e. the dose producing a 50 per cent reversal, was determined.

α2-adrenoceptor [5] = test: Duration of the α2-blocking action (antagonism of detomidine mydriasis after oral pretreatment); format: in vivo; details: rat, equipotent doses, pretreatment 1, 2, 4, 7 or 16 hours, time for antagonist effect to fall by half
Method: The duration of the α2 -blocking action of the compounds was determined as follows: the antagonists were administered orally at equipotent doses to groups of 4 rats 1, 2, 4, 7 or 16 hours before induction of anaesthesia and challenge with cumulative i.v. dosing of detomidine. By calculating the percentage antagonism of the mydriatic effect of 0.1 mg/kg detomidine for each pretreatment group, a time-effect relationship was established. This in turn permitted the measurement of the time taken for the antagonist effect to fall by half.

α2-adrenoceptor [6] = target: T3, α2-adrenoceptor (Rattus norvegicus, UniProt P22909); test: Relative peroral bioavailability (α2-blocking potency after peroral vs parenteral administration); format: in vivo; details: equipotent doses 0.3 to 3 mg/kg, 1 hour before anaesthesia
T3 construct: transmitted via postsynaptic α2 -receptors in the central nervous system; from tissue; host or cells: whole anaesthetized rat (in vivo), central nervous system
T3 sequence (P22909 1-465): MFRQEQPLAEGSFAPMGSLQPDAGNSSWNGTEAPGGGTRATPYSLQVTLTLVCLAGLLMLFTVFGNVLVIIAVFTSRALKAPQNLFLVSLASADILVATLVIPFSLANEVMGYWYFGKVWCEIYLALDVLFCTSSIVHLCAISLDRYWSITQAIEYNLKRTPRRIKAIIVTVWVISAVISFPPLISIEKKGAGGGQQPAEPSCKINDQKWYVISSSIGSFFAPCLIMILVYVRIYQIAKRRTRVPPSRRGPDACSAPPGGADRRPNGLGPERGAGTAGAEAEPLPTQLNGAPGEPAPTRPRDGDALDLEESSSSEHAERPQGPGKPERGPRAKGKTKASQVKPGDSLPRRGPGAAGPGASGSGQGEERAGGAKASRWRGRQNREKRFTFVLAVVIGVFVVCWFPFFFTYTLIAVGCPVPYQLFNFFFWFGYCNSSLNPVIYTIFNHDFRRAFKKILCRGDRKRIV
Method: The relative bioavailability of the antagonists when administered orally was evaluated by comparing the potency of their α2 -blocking effect after peroral and parenteral administration. The antagonists were administered at equipotent doses (0.3 to 3 mg/kg) to groups of rats 1 hour before induction of anaesthesia and challenge with detomidine as described above in relation to the measurement of duration of action.

rats = test: Effects on learning and memory in linear arm maze task; format: in vivo, rat; details: for learning and memory effect (overall): adult rats; for time to solve the task / number of errors (reentries into arms already visited): rats; for time to solve the task: effect on learning and speed to make correct choices; for number of errors (reentries into arms already visited): effect on working memory
Method: The linear arm maze is a modified version of radial arm maze, which is a generally used memory test in rats. […] Water was also used as control. All injections were made in a volume 1 ml/kg.
Apparatus: The maze was a wooden platform in a shape of two crosses one after another. The stem (starting arm) was 90 cm long and 12 cm wide. The five other arms (goal arms) were 50 cm long and 12 cm wide. Four goal arms were situated perpendicularly to the stem and to the fifth arm which located opposite to the stem. On either side of the stem and the arms were edges, 2.0 cm high. At the end of each goal arm a hole 1 cm deep and 3 cm in diameter, served as a food cup. The starting platform (20×20 cm) was separated from the stem by a quillotine door. The door was 12 cm high and 7 cm wide. The door frame was 20 cm high and 20 cm wide. The maze was elevated 31 cm above the floor, in a low-lighted test room which contained other objects as well as the test apparatus. The holes at the end of the goal arms were baited with three pellets of prize food (45 mg pellets Bio Serve Inc.).
Procedures: Two days prior to training, animals were placed on a food deprivation schedule that reduces their body weights to 90% of initial weights. During these days the rats were habituated to handling (three times/day), test room and prize food. On the second day they were also habituated to the unbaited maze: three to five animals from the same cage at the same time for ten minutes. On the third day the goal arms were baited, and the teaching trial, one rat at a time, was carried out. The rat received drug or distilled water and […] later it was placed in the starting platform. After ten seconds the door was opened and the rat was allowed to explore the maze until all the baits were found. The time to find all the baits and reentries made into already visited arms was recorded. This time every rate was allowed to stay in the maze at least for five minutes. On the next day the proper memory and learning testing began and continued for four days (testing days 1 to 4). Rats were given eight trials, two per day. Inter trial interval was 50 minutes. Drugs or distilled water were administered 30 minutes before the first trial of the day. Otherwise testing trials were identical to the teaching trial. All the observations were done blind so that test solutions were in coded flasks.
Statistical analysis: The results were expressed as mean time/trial/day (seconds) and mean errors/trial/day. The analysis of variance for the repeated measurements (ANOVA) was used to compare the drugs' and the testing days' effects on learning and memory.

[7] = Acute toxicity (LD50) using mice; details: mouse, in vivo, po
Method: For example, the LD50 for 7-(4-(5-fluoro-2,3-dihydro-1H-inden-2-yl)-1H-imidazole) is 100 mg/kg (p.o.).

[8] = antagonist given prior to detomidine, mouse vas deferens, read-out: α2-Antagonism (pA2 vs detomidine) mouse vas deferens (converted)

| SMILES | Kb (α2-adrenoceptor [1]; [8]) | α1-Antagonism (pA2 vs phenylephrine) rat vas deferens (α1-adrenoceptor [2]) | α1-Agonism (pD2) rat vas deferens (α1-adrenoceptor [3]) | α2-Antagonism ED50 (iv) (α2-adrenoceptor [4]) | t1/2 of α2-antagonism (α2-adrenoceptor [5]) | Peroral bioavailability (α2-adrenoceptor [6]) | Kb (α2-adrenoceptor [1]) | also measured |
| --- | --- | --- | --- | --- | --- | --- | --- | --- |
| CCC1(c2c[nH]cn2)Cc2ccc(F)cc2C1 (stereo not drawn) [Compound 1, 4-(2-Ethyl-5-fluoro-2,3-dihydro-1H-inden-2-yl)-1H-imidazole] | 0.00631 µM | no effect | no effect | 0.015 mg/kg | 3 h | 81 | – | – |
| CC1(c2c[nH]cn2)Cc2ccc(F)cc2C1 (stereo not drawn) [Compound 2, 4-(5-Fluoro-2,3-dihydro-2-methyl-1H-inden-2-yl)-1H-imidazole] | 0.0501 µM | – | – | – | – | – | – | – |
| CCC1(c2c[nH]cn2)Cc2cc(F)c(F)cc2C1 [Compound 3, 4-(2-Ethyl-5,6-difluoro-2,3-dihydro-1H-inden-2-yl)-1H-imidazole] | 0.0631 µM | – | – | – | – | – | – | – |
| CCC1(c2c[nH]cn2)Cc2ccc(F)cc2C1=O (stereo not drawn) [Compound 4, 2-Ethyl-6-fluoro-2,3-dihydro-2-(1H-imidazol-4-yl)-1H-inden-1-one] | 1.26 µM | no effect | no effect | 0.3 mg/kg | 6 h | 89 | – | learning and memory effect (overall) (rats; 3 mg/kg p.o. (hydrochloride)): learning and memory enhancing effects; time to solve the task (rats; 3 mg/kg p.o. (hydrochloride)): decreased the time to solve the task; number of errors (reentries into arms already visited) (rats; 3 mg/kg p.o. (hydrochloride)): decreased number of errors |
| CCC1(c2c[nH]cn2)Cc2ccc(Cl)cc2C1=O (stereo not drawn) [Compound 5, 6-Chloro-2-ethyl-2,3-dihydro-2-(1H-imidazol-4-yl)-1H-inden-1-one] | 0.251 µM | – | – | – | – | – | – | – |
| Fc1cccc2c1CC(c1c[nH]cn1)C2 (stereo not drawn) [Compound 6, 4-(4-Fluoro-2,3-dihydro-1H-inden-2-yl)-1H-imidazole] | – | – | – | – | – | – | 0.00794 µM | EC50 (α1-adrenoceptor [3]): 0.316 µM; α1-Agonism, type of agonist (full/partial) (α1-adrenoceptor [3]; rat vas deferens): full agonist |
| Fc1ccc2c(c1)CC(c1c[nH]cn1)C2 (stereo not drawn) [Compound 7, 4-(5-Fluoro-2,3-dihydro-1H-inden-2-yl)-1H-imidazole] | – | – | – | 0.01 mg/kg | 7 h | 80 | 0.01 µM | EC50 (α1-adrenoceptor [3]): 3.16 µM; learning and memory effect (overall) (rats; 0.3 mg/kg s.c. (hydrochloride)): learning and memory enhancing effects; time to solve the task (rats; 0.3 mg/kg s.c. (hydrochloride)): decreased the time to solve the task; number of errors (reentries into arms already visited) (rats; 0.3 mg/kg s.c. (hydrochloride)): decreased number of errors; LD50 [7]: 100 mg/kg |
| CCC1(c2c[nH]cn2)Cc2ccc(O)cc2C1 (stereo not drawn) [Compound 8, 2-Ethyl-2-(1H-imidazol-4-yl)-5-indanol] | 0.0631 µM | – | – | – | – | – | – | – |
| CCC1(c2cnc[nH]2)Cc2ccccc2C1 [atipamezole, reference compound] | – | 5.0 | no effect | 0.01 mg/kg | 2 h | – | 0.00794 µM | learning and memory effect (overall) (rats; 0.3 mg/kg s.c. (hydrochloride)): learning and memory enhancing effects; time to solve the task (rats; 0.3 mg/kg s.c. (hydrochloride)): decreased the time to solve the task; number of errors (reentries into arms already visited) (rats; 0.3 mg/kg s.c. (hydrochloride)): decreased number of errors |
